Results reported in publication PMC11345752, “In Situ Biofilm Affinity-Based Protein Profiling Identifies the Streptococcal Hydrolase GbpB as the Target of a Carolacton-Inspired Chemical Probe” (Journal of the American Chemical Society, 2024).

Biological target: T1, FolD (Escherichia coli, UniProt P24186)
T1 construct: purified E. coli FolD
Assay: dehydrogenase assay with purified FolD
Format: biochemical

COC(CC(=O)O)C(C)C(=O)C(C)/C=C(\C)C1OC(=O)C(O)C(O)C=CC(C)CCCC1C (stereo not shown) [carolacton]
IC50: 94 nM
